Measured values from PMC8284454, “In Vitro Profiling of Antitubercular Compounds by Rapid, Efficient, and Nondestructive Assays Using Autoluminescent Mycobacterium tuberculosis” (Antimicrobial Agents and Chemotherapy, 2021).
Values after ≈ are worked out from the molar mass of the structure shown. Like-named read-outs stand apart in the source and are kept apart here. Marks after values point to notes of the source that are not given here.

Tests used:
[1] = test system: M. tuberculosis H37Rv_LuxABCDE; test: luminescence-based MBC assay (LMBCA) / time-kill; format: cell-based, Mycobacterium tuberculosis; conditions: for MBC: Mycobacterium tuberculosis, 99% reduction in RLU vs T0; for change of MBC values over time: over 21 days, luminescence time-kill; for time and/or concentration dependence of bactericidal activity: time-kill curves up to day 21
[2] = test system: J774-internalized M. tuberculosis (H37Rv); test: intracellular activity by luminescence (EC90); format: cell-based, Mycobacterium tuberculosis; conditions: for EC90: RLU; for onset of growth inhibition of internalized M. tuberculosis: early = EC90 obtainable by day 3, late = EC90 obtainable by day 5 or later
[3] = test system: M. tuberculosis H37Rv_LuxABCDE; test: microplate alamarBlue assay (MABA) MIC; conditions: 90% reduction of fluorescence, 7 days, 7H12 medium; SD from three independent experiments
[4] = test system: M. tuberculosis H37Rv_LuxABCDE; test: MIC used to set PAE concentrations (Table 4); format: cell-based; conditions: Mycobacterium tuberculosis
From the text: TABLE 4 Comparison of post antibiotic effect values (h) obtained via CFU and RLU measurement for two established TB drugs (rifampin and isoniazid) and two emerging TB lead candidates (ecumicin and rufomycin)^a | column: MIC (μM)

[5] = test system: M. tuberculosis H37Rv_LuxABCDE; test: postantibiotic effect by luminescence (RLU); format: cell-based, Mycobacterium tuberculosis; conditions: 1.5 log10 RLU increase, 1:10,000-fold dilution; for PAE 10× MIC RLU: 3 h exposure at 10× MIC; for PAE 100× MIC RLU: 3 h exposure at 100× MIC
[6] = test system: M. tuberculosis H37Rv_LuxABCDE; test: luminescence-based MIC assay (LMICA); conditions: 90% reduction of luminescence, 7 days, 7H12 medium; SD from three independent experiments
[7] = test system: M. tuberculosis H37Rv_LuxABCDE; format: cell-based, Mycobacterium tuberculosis; conditions: 1:10,000-fold dilution; for PAE 10× MIC CFU/ml: 3 h exposure at 10× MIC; for PAE 100× MIC CFU/ml: 3 h exposure at 100× MIC
[8] = test system: M. tuberculosis H37Rv_LuxABCDE; test: microbe, parasite or virus in culture; format: cell-based, Mycobacterium tuberculosis; conditions: Mycobacterium tuberculosis, day 7, SD from three independent experiments, read-out: MBC (±SD) via CFU
[9] = test system: macrophage-internalized M. tuberculosis; conditions: EC90, high-content imaging on day 5; read-out: Literature reported EC90; cited from earlier work
[10] = 168 h, day 7, SD from three independent experiments, read-out: MBC (±SD) via luminescence
[11] = 336 h, day 14, read-out: MBC (±SD) by luminescence on day 14
[12] = 504 h, day 21, read-out: MBC (±SD) by luminescence on day 21
[13] = Mycobacterium tuberculosis, H37RV, 72 h, EC90, day 3, J774 macrophages, read-out: Intracellular activity, EC90 (±SD) Day 3
[14] = Mycobacterium tuberculosis, H37RV, 120 h, EC90, day 5, J774 macrophages, read-out: Intracellular activity, EC90 (±SD) Day 5
[15] = Mycobacterium tuberculosis, H37RV, 168 h, EC90, day 7, J774 macrophages, read-out: Intracellular activity, EC90 (±SD) Day 7

SMILES	MBC [1, 10]	MBC [1, 11]	MBC [1, 12]	change of MBC values over time [1]	time and/or concentration dependence of bactericidal activity [1]	EC90 [2, 13]	EC90 [2, 14]	EC90 [2, 15]	onset of growth inhibition of internalized M. tuberculosis [2]	MIC (±SD) MABA [3]	MIC [4]	PAE 10× MIC RLU [5]	PAE 100× MIC RLU [5]	MIC (±SD) LMICA [6]	PAE 10× MIC CFU/ml [7]	PAE 100× MIC CFU/ml [7]	MBC [8]	EC90 [9]	further results
NNC(=O)c1ccncc1 [Isoniazid]	0.57 µM (≈ 0.0782 µg/mL)	2.56 µM (≈ 0.351 µg/mL)	3.23 µM (≈ 0.443 µg/mL)	increase	mainly time dependent	> 8 µM	1.05 µM	0.52 µM	late growth inhibition	0.30 (0.05) μM	0.3 µM (≈ 0.0411 µg/mL)	0 h	0 h	0.24 (0.08) μM	0 h	0 h	0.46 µM (≈ 0.0631 µg/mL)	1.2 µM	inhibition at 8 µM ([2]; Mycobacterium tuberculosis, H37RV, 72 h, day 3, 8 μM, read-out: percent inhibition at the highest tested concentration, intracellular activity Day 3): 77%; PAE 1× MIC RLU ([5]; 3 h exposure at 1× MIC): 0 h; PAE 100× MIC RLU ([5]; listed as isoniazid): no observable PAE; PAE 1× MIC CFU/ml ([7]; 3 h exposure at 1× MIC): 0 h; PAE 100× MIC CFU/ml ([7]; listed as isoniazid): no observable PAE; Toxicity against infected J774, percent inhibition at the highest tested concentration (infected J774; day 7, 8 μM): 8 (0)* percent
CO[C@H]1/C=C/O[C@@]2(C)Oc3c(C)c(O)c4c(O)c(c(/C=N/N5CCN(C)CC5)c(O)c4c3C2=O)NC(=O)/C(C)=C\C=C\[C@H](C)[C@H](O)[C@@H](C)[C@@H](O)[C@@H](C)[C@H](OC(C)=O)[C@@H]1C [Rifampin]	0.6 µM (≈ 0.494 µg/mL)	0.48 µM (≈ 0.395 µg/mL)	0.4 µM (≈ 0.329 µg/mL)	decreased	both time and concentration dependent	> 2 µM	1.55 µM	0.64 µM	late growth inhibition	0.060 (0.01) μM	0.04 µM (≈ 0.0329 µg/mL)	26 h	92 h	0.041 (0.005) μM	30 h	58 h	0.4 µM (≈ 0.329 µg/mL)	2.9 µM	inhibition at 2 µM ([2]; Mycobacterium tuberculosis, H37RV, 72 h, day 3, 2 μM, read-out: percent inhibition at the highest tested concentration, intracellular activity Day 3): 60%; Toxicity against infected J774, percent inhibition at the highest tested concentration (infected J774; day 7, 2 μM): 2 (0)* percent
